Laboratory results reported in patent publication US6504058B1 (priority 1997, dated 2003).
Read-outs that look alike come from different tables or passages of the source.

Legend:
Pyricularia oryzae = type: in vivo, Pyricularia oryzae (on rice seedlings); conditions: 100 = 100% disease control, 0 = no control, # = significant activity
Puccinia recondita = test: Test B: wheat leaf rust, preventive spray on wheat seedlings, disease rating; type: in vivo, Puccinia recondita (on wheat seedlings); conditions: 200 ppm test suspension sprayed to run-off (equivalent to 500 g/ha) on wheat seedlings; 100 = 100% disease control, 0 = no control; # = significant activity
Excerpt: (§1) Test compounds were first dissolved in acetone in an amount equal to 3% of the final volume and then suspended at a concentration of 200 ppm in purified water containing 250 ppm of the surfactant Trem® 014 (polyhydric alcohol esters). The resulting test suspensions were then used in the following test. Spraying these 200 ppm test suspensions to the point of run-off on the test plants is the equivalent of a rate of 500 g/ha.
The test suspension was sprayed to the point of run-off on wheat seedlings. The following day the seedlings were inoculated with a spore suspension of Puccinia recondita (the causal agent of wheat leaf rust) and incubated in a saturated atmosphere at 20° C. for 24 h, and then moved to a growth chamber at 20° C. for 6 days, after which disease ratings were made.
(§2) Results for Tests A-E are given in Table A. In the table, a rating of 100 indicates 100% disease control and a rating of 0 indicates no disease control (relative to the controls). A dash (-) indicates no test results. ND indicates disease control not determined due to phytotoxicity. # indicates significant activity.

Phytophthora infestans = type: in vivo, Phytophthora infestans (on tomato seedlings); conditions: 200 ppm test suspension sprayed to run-off (equivalent to 500 g/ha) on tomato seedlings; 100 = 100% disease control, 0 = no control; # = significant activity
Botrytis cinerea = test: Test E: gray mold, preventive spray on cucumber seedlings, disease rating; type: in vivo, Botrytis cinerea (on cucumber seedlings); conditions: 200 ppm test suspension sprayed to run-off (equivalent to 500 g/ha) on cucumber seedlings; 100 = 100% disease control, 0 = no control; # = significant activity
Excerpt: as §1
The test suspension was sprayed to the point of run-off on cucumber seedlings. The following day the seedlings were inoculated with a spore suspension of Botrytis cinerea (the causal agent of gray mold on many crops) and incubated in a saturated atmosphere at 20° C. for 48 h, and moved to a growth chamber at 20° C. for 5 days, after which disease ratings were made.
as §2

[1] = tested on: Erysiphe graminis f. sp. tritici; test: Test A: wheat powdery mildew, preventive spray on wheat seedlings, disease rating; type: in vivo, Erysiphe graminis f. sp. tritici (on wheat seedlings); conditions: 200 ppm test suspension sprayed to run-off (equivalent to 500 g/ha) on wheat seedlings; 100 = 100% disease control, 0 = no control; # = significant activity
Excerpt: as §1
The test suspension was sprayed to the point of run-off on wheat seedlings. The following day the seedlings were inoculated with a spore dust of Erysiphe graminis f. sp. tritici, (the causal agent of wheat powdery mildew) and incubated in a growth chamber at 20° C. for 7 days, after which disease ratings were made.
as §2

[2] = 200 ppm test suspension sprayed to run-off (equivalent to 500 g/ha) on rice seedlings
[3] = Tested at 40 ppm, rice seedlings

Row | Compound | Test C disease control rating (rice blast) (Pyricularia oryzae; [2]) | Test B disease control rating (wheat leaf rust) (Puccinia recondita) | Test D disease control rating (potato and tomato late blight) (Phytophthora infestans) | Test E disease control rating (gray mold) (Botrytis cinerea) | Test A disease control rating (wheat powdery mildew) [1] | Test C disease control rating (rice blast) (Pyricularia oryzae; [3])
1 | CC(NC(=O)C1(C(F)(F)F)CC(C)(Cl)C1)c1ccc(Br)cc1 (mixture of isomers) [compound 1] | 100# (a rating of 100 indicates 100% disease control) | – | – | – | – | –
2 | CC(CCc1ccccc1)NC(=O)C1(C(F)(F)F)CC(C)(Cl)C1 (mixture of isomers) [compound 2] | 64# % | – | – | – | – | –
3 | CC(NC(=O)C1(C(F)(F)F)CC(C)(Cl)C1)c1ccc(Cl)cc1 (stereo not drawn) [Compound 7] | 100# (a rating of 100 indicates 100% disease control) | – | – | – | – | –
4 | CC(COc1cc(F)ccc1F)NC(=O)C1(C)CC(C)(Cl)C1 (stereo not drawn) [Compound 30] | 100# (a rating of 100 indicates 100% disease control) | 0 (a rating of 0 indicates no disease control (relative to the controls)) | 0 (a rating of 0 indicates no disease control (relative to the controls)) | 94# % | 0 (a rating of 0 indicates no disease control (relative to the controls)) | –
5 | CC(NC(=O)C1(C(F)(F)F)CC(C)(Cl)C1)c1ccc(Br)cc1 (stereo not drawn) [compound 4] | 100# (a rating of 100 indicates 100% disease control) | – | – | – | – | –
6 | CC(NC(=O)C1(C(F)(F)F)CC(C)(Cl)C1)c1ccc(Br)cc1 (stereo not drawn) [compound 5] | 100# (a rating of 100 indicates 100% disease control) | – | – | – | – | –
7 | CC(NC(=O)C1(C(F)(F)F)CC(C)(Cl)C1)c1ccc(Cl)cc1 (stereo not drawn) [compound 6] | 98# % | – | – | – | – | –
8 | CC(NC(=O)C1(C(F)(F)F)CC(C)(Cl)C1)c1ccc(Cl)cc1Cl (stereo not drawn) [compound 8] | 100# (a rating of 100 indicates 100% disease control) | 0 (a rating of 0 indicates no disease control (relative to the controls)) | 24% | 0 (a rating of 0 indicates no disease control (relative to the controls)) | 0 (a rating of 0 indicates no disease control (relative to the controls)) | –
9 | CC(NC(=O)C1(C(F)(F)F)CC(C)(Cl)C1)c1ccc(Cl)cc1Cl (stereo not drawn) [compound 9] | 100# (a rating of 100 indicates 100% disease control) | 0 (a rating of 0 indicates no disease control (relative to the controls)) | 0 (a rating of 0 indicates no disease control (relative to the controls)) | 0 (a rating of 0 indicates no disease control (relative to the controls)) | 0 (a rating of 0 indicates no disease control (relative to the controls)) | –
10 | CC(NC(=O)C1CC(C)(Cl)C1)c1ccc(Br)cc1 (stereo not drawn) [compound 10] | 53% | 0 (a rating of 0 indicates no disease control (relative to the controls)) | 42% | 0 (a rating of 0 indicates no disease control (relative to the controls)) | 74% | –
11 | CC(NC(=O)C1CC(C)(Cl)C1)c1ccc(Br)cc1 (stereo not drawn) [compound 11] | 53% | 0 (a rating of 0 indicates no disease control (relative to the controls)) | 60% | 0 (a rating of 0 indicates no disease control (relative to the controls)) | 57% | –
12 | CC(NC(=O)C1(Cl)CC(Cl)(Cl)C1)c1ccc(Br)cc1 (stereo not drawn) [compound 12] | 100# (a rating of 100 indicates 100% disease control) | 0 (a rating of 0 indicates no disease control (relative to the controls)) | 11% | 0 (a rating of 0 indicates no disease control (relative to the controls)) | 99% | –
13 | CC(NC(=O)C1(C)CC(C)(Cl)C1)c1ccc(Br)cc1 (stereo not drawn) [compound 13] | 94# % | 0 (a rating of 0 indicates no disease control (relative to the controls)) | 0 (a rating of 0 indicates no disease control (relative to the controls)) | 0 (a rating of 0 indicates no disease control (relative to the controls)) | 0 (a rating of 0 indicates no disease control (relative to the controls)) | –
14 | CC(NC(=O)C1(C)CC(C)(Cl)C1)c1ccc(Br)cc1 (stereo not drawn) [compound 14] | 97# % | 0 (a rating of 0 indicates no disease control (relative to the controls)) | 0 (a rating of 0 indicates no disease control (relative to the controls)) | 0 (a rating of 0 indicates no disease control (relative to the controls)) | 0 (a rating of 0 indicates no disease control (relative to the controls)) | –
15 | CC(NC(=O)C1(Cl)CC(C)(Cl)C1)c1ccc(Br)cc1 (stereo not drawn) [compound 15] | – | – | – | – | – | 94#* %
16 | CC(NC(=O)C1(Cl)CC(C)(Cl)C1)c1ccc(Br)cc1 (stereo not drawn) [compound 16] | – | – | – | – | – | 98#* %
17 | CC(NC(=O)C1(C)CC(C)(Br)C1)c1ccc(Br)cc1 (stereo not drawn) [compound 17] | 74% | 0 (a rating of 0 indicates no disease control (relative to the controls)) | 0 (a rating of 0 indicates no disease control (relative to the controls)) | 0 (a rating of 0 indicates no disease control (relative to the controls)) | 0 (a rating of 0 indicates no disease control (relative to the controls)) | –
18 | CC(NC(=O)C1(C)CC(C)(Br)C1)c1ccc(Br)cc1 (stereo not drawn) [compound 18] | 99# % | 0 (a rating of 0 indicates no disease control (relative to the controls)) | 0 (a rating of 0 indicates no disease control (relative to the controls)) | 0 (a rating of 0 indicates no disease control (relative to the controls)) | 0 (a rating of 0 indicates no disease control (relative to the controls)) | –
19 | CC(NC(=O)C1(C)CC(C)(Cl)C1)c1ccc(Cl)cc1Cl (stereo not drawn) [compound 19] | 100# (a rating of 100 indicates 100% disease control) | 0 (a rating of 0 indicates no disease control (relative to the controls)) | 0 (a rating of 0 indicates no disease control (relative to the controls)) | 0 (a rating of 0 indicates no disease control (relative to the controls)) | 33% | –
20 | CC(COc1ccccc1F)NC(=O)C1(C(F)(F)F)CC(C)(Cl)C1 (stereo not drawn) [compound 25] | 97# % | – | – | – | – | –
21 | CC(COc1ccccc1F)NC(=O)C1(C(F)(F)F)CC(C)(Cl)C1 (stereo not drawn) [compound 26] | 100# (a rating of 100 indicates 100% disease control) | – | – | – | – | –
22 | (R)-N-[1-(4-bromophenyl)ethyl]-3,3-difluoro-1-methylcyclobutanecarboxamide [Example 3] | 82# % | – | – | – | – | –
